Molecular target: T1, EZH2 within the PRC2 complex (Homo sapiens, UniProt Q15910)
T1 construct: FLAG; made in house; host or cells: Sf9 cells
Test: EZH2 methyltransferase scintillation proximity assay (SPA)
Assay type: biochemical
Conditions: methyltransferase activity of EZH2 in human PRC2 complex, 3H-SAM, HeLa mononucleosomes
Procedure: Compounds contained herein were evaluated for their ability to inhibit the methyltransferase activity of EZH2 within the PRC2 complex. Human PRC2 complex was prepared by co-expressing each of the 5 member proteins (FLAG-EZH2, EED, SUZ12, RbAp48, AEBP2) in Sf9 cells followed by co-purification. Enzyme activity was measured in a scintillation proximity assay (SPA) where a tritiated methyl group is transferred from 3H-SAM to a lysine residue on Histone H3 of a mononucleosome, purified from HeLa cells. Mononucleosomes were captured on SPA beads and the resulting signal is read on a ViewLux plate reader.
Part A. Compound Preparation
• 1. Prepare 10 mM stock of compounds from solid in 100% DMSO. • 2. Set up an 11-point serial dilution (1:3 dilution, top concentration 10 mM) in 100% DMSO for each test compound in a 384 well plate leaving columns 6 and 18 for DMSO controls. • 3. Dispense 100 nL of compound from the dilution plate into reaction plates (Grenier Bio-One, 384-well, Cat#784075). Part B. Reagent Preparation Prepare the following solutions: • 1. 50 mM Tris-HCl, pH 8: Per 1 L of base buffer, combine 1 M Tris-HCl, pH 8 (50 mL) and distilled water (950 mL). • 2. 1× Assay Buffer: Per 10 mL of 1× Assay Buffer, combine 50 mM Tris-HCl, pH 8 (9958 uL), 1 M MgCl2 (20 uL), 2 M DTT (20 uL), and 10% Tween-20 (2 uL) to provide a final concentration of 50 mM Tris-HCl, pH 8, 2 mM MgCl2, 4 mM DTT, 0.002% Tween-20. • 3. 2× Enzyme Solution: Per 10 mL of 2× Enzyme Solution, combine 1× Assay Buffer and PRC2 complex to provide a final enzyme concentration of 10 nM. • 4. SPA Bead Suspension: Per 1 mL of SPA Bead Suspension, combine PS-PEI coated LEADSeeker beads (40 mg) and ddH2O (1 mL) to provide a final concentration of 40 mg/mL. • 5. 2× Substrate Solution: Per 10 mL of 2× Substrate Solution, combine 1× Assay Buffer (9728.55 uL), 800 ug/mL mononucleosomes (125 uL), 1 mM cold SAM (4 uL), and 7.02 uM 3H-SAM (142.45 uL; 0.55 mCi/mL) to provide a final concentration of 5 ug/mL nucleosomes, 0.2 uM cold SAM, and 0.05 uM 3H-SAM. • 6. 2.67× Quench/Bead Mixture: Per 10 mL of 2.67× Quench/Bead Mixture, combine ddH2O (9358 uL), 10 mM cold SAM (267 uL), 40 mg/mL Bead Suspension (375 uL) to provide a final concentration of 100 uM cold SAM and 0.5 mg/mL SPA beads. Part C. Assay Reaction in 384-well Grenier Bio-One Plates Compound Addition • 1. Dispense […] of 100× Compound to test wells (as noted above). • 2. Dispense […] of 100% DMSO to columns 6 & 18 for high and low controls, respectively. Assay • 1. Dispense 5 uL/well of 1× Assay Buffer to column 18 (low control reactions). • 2. Dispense 5 uL/well of 2× Enzyme Solution to columns 1-17, 19-24. • 3. Spin assay plates for ˜1 minute at 500 rpm. • 4. Stack the assay plates, covering the top plate. • 5. Incubate the compound/DMSO with the enzyme for 30 minutes at room temperature. • 6. Dispense 5 uL/well of 2× Substrate Solution to columns 1-24. • 7. Spin assay plates for ˜1 minute at 500 rpm. • 8. Stack the assay plates, covering the top plate. • 9. Incubate the assay plates at room temperature for 1 hour. Quench/Bead Addition • 1. Dispense 5 uL/well of the 3× Quench/Bead Mixture to columns 1-24. • 2. Seal the top of each assay plate with adhesive TopSeal. • 3. Spin assay plates for ˜1 minute at 500 rpm. • 4. Equilibrate the plates for >20 min. Read Plates • 1. Read the assay plates on the Viewlux Plate Reader utilizing the 613 nm emission filter with a 300 s read time. Reagent addition can be done manually or with automated liquid handler. *The final DMSO concentration in this assay is 1%. *The positive control is in column 6; negative control is in column 18. *Final starting concentration of compounds is 100 μM. Part D. Data Analysis
Percent inhibition was calculated relative to the DMSO control for each compound concentration and the resulting values were fit using standard IC50 fitting parameters within the ABASE data fitting software package.

T1 sequence (Q15910 whole entry): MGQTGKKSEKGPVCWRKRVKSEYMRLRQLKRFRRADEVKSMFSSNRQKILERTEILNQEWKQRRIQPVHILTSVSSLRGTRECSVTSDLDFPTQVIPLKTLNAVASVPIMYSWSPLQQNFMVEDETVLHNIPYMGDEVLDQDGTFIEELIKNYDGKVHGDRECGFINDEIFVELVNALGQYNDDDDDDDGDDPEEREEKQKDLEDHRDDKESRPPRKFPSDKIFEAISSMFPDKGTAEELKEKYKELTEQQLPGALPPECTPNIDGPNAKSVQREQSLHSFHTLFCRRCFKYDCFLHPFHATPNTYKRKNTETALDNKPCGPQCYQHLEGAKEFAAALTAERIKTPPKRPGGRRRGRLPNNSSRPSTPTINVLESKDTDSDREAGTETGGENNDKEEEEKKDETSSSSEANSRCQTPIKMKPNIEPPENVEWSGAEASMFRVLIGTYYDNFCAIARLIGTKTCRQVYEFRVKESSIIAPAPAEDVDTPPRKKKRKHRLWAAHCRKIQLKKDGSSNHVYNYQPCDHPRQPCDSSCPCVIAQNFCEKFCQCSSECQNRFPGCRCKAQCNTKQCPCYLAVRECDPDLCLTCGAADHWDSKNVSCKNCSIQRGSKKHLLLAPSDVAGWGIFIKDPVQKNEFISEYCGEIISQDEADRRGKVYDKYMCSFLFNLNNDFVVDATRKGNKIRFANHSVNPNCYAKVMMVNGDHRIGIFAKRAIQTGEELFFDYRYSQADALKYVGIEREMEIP
T1 sequence (O75530 whole entry partner): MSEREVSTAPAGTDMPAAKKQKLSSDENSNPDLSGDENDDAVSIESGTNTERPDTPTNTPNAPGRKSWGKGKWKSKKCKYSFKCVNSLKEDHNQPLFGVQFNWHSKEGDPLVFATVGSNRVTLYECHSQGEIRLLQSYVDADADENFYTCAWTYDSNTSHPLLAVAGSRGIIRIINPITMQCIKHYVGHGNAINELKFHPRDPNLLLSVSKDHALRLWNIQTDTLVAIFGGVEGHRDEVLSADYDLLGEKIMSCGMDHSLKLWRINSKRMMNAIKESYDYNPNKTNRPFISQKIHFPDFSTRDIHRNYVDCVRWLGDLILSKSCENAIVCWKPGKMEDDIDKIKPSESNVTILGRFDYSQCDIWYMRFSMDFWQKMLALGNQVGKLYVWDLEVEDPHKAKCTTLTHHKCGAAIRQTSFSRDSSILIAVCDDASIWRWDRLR
T1 sequence (Q15022 whole entry partner): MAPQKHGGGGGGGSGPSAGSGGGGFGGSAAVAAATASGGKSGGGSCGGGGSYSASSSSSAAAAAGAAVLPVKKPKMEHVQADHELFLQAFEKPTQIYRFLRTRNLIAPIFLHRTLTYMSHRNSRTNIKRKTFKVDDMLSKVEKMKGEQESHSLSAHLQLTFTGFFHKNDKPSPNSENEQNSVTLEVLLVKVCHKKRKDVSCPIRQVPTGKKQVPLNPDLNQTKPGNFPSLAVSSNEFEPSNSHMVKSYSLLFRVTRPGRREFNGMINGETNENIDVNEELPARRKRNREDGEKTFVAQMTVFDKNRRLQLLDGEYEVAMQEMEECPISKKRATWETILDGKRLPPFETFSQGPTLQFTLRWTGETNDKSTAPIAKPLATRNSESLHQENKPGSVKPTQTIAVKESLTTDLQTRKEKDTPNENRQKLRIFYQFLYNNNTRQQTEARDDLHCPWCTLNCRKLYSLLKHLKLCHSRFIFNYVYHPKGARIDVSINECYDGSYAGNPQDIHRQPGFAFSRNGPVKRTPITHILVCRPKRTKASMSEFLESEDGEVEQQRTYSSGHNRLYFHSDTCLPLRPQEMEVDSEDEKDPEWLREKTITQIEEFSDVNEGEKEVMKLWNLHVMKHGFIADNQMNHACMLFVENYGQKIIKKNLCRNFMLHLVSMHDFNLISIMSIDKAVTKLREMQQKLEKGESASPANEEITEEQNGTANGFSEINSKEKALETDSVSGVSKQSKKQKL
T1 sequence (Q09028 whole entry partner): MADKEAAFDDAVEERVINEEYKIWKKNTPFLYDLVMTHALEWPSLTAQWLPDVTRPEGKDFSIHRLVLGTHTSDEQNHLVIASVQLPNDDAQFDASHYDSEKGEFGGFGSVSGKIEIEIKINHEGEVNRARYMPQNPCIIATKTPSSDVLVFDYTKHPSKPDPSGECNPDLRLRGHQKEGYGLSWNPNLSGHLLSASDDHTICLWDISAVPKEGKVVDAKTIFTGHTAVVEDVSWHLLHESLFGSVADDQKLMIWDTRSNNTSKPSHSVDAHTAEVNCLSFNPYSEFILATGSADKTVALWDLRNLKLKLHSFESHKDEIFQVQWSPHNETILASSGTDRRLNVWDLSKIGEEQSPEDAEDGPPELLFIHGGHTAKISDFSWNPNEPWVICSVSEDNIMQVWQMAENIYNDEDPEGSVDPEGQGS
T1 sequence (Q6ZN18 whole entry partner): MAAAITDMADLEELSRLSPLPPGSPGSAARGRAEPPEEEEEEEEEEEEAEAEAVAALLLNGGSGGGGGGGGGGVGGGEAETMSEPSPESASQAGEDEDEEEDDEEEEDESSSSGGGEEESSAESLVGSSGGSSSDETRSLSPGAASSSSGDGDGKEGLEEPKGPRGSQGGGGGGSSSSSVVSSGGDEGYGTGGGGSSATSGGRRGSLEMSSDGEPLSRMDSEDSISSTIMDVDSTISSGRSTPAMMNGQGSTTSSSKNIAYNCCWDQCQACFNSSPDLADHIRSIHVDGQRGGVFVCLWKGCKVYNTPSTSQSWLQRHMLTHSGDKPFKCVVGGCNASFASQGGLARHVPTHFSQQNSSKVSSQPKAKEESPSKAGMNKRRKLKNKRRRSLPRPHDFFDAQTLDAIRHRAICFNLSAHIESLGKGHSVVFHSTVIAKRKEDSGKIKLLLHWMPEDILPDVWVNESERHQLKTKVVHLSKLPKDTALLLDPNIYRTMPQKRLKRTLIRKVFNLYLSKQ

Compound	IC50
Cc1cc(C)c(CNC(=O)c2cc(-c3cnn(C)c3)cc3c2cnn3C(C)C)c(=O)[nH]1 [Example 13, N-((4,6-dimethyl-2-oxo-1,2-dihydropyridin-3-yl)methyl)-1-isopropyl-6-(1-methyl-1H-pyrazol-4-yl)-1H-indazole-4-carboxamide]	126 nM
CCCc1cc(C)[nH]c(=O)c1CNC(=O)c1cc(Cl)cc2c1cnn2C(C)C [Example 1, 6-chloro-1-(1-methylethyl)-N-[(6-methyl-2-oxo-4-propyl-1,2-dihydro-3-pyridinyl)methyl]-1H-indazole-4-carboxamide]	32 nM
CCCc1cc(C)[nH]c(=O)c1CNC(=O)c1cc(-c2cccnc2C)cc2c1cnn2C(C)C [Example 25, 1-(1-methylethyl)-N-[(6-methyl-2-oxo-4-propyl-1,2-dihydro-3-pyridinyl)methyl]-6-(2-methyl-3-pyridinyl)-1H-indazole-4-carboxamide]	13 nM
Cc1cc(C)c(CNC(=O)c2cc(-c3ccc(N4CCNCC4)cc3)cc3c2cnn3C(C)C)c(=O)[nH]1 [Example 9, N-[(4,6-dimethyl-2-oxo-1,2-dihydro-3-pyridinyl)methyl]-1-(1-methylethyl)-6-[4-(1-piperazinyl)phenyl]-1H-indazole-4-carboxamide]	16 nM
Cc1cc(C)c(CNC(=O)c2cc(-c3ccc(OCCN(C)C)cc3)cc3c2cnn3C(C)C)c(=O)[nH]1 [Example 8, N-((4,6-dimethyl-2-oxo-1,2-dihydropyridin-3-yl)methyl)-6-(4-(2-(dimethylamino)ethoxy)phenyl)-1-isopropyl-1H-indazole-4-carboxamide]	10 nM
CCCc1cc(C)[nH]c(=O)c1CNC(=O)c1cc(-c2cncnc2)cc2c1cnn2C(C)C [Example 22, 1-(1-methylethyl)-N-[(6-methyl-2-oxo-4-propyl-1,2-dihydro-3-pyridinyl)methyl]-6-(5-pyrimidinyl)-1H-indazole-4-carboxamide]	20 nM
Cc1cc(C)c(CNC(=O)c2cc(-c3ccc(N4CCNCC4)nc3)cc3c2cnn3C(C)C)c(=O)[nH]1 [Example 10, N-[(4,6-dimethyl-2-oxo-1,2-dihydro-3-pyridinyl)methyl]-1-(1-methylethyl)-6-[6-(1-piperazinyl)-3-pyridinyl]-1H-indazole-4-carboxamide]	13 nM
Cc1cc(C)c(CNC(=O)c2cc(-c3cccc(CN(C)C)c3)cc3c2cnn3C(C)C)c(=O)[nH]1 [Example 29, 6-{3-[(dimethylamino)methyl]phenyl}-N-[(4,6-dimethyl-2-oxo-1,2-dihydro-3-pyridinyl)methyl]-1-(1-methylethyl)-1H-indazole-4-carboxamide]	40 nM
Cc1cc(C)c(CNC(=O)c2cc(-c3ccc(N(C)C)nc3)cc3c2cnn3C(C)C)c(=O)[nH]1 [Example 27, 6-[6-(dimethylamino)-3-pyridinyl]-N-[(4,6-dimethyl-2-oxo-1,2-dihydro-3-pyridinyl)methyl]-1-(1-methylethyl)-1H-indazole-4-carboxamide]	32 nM
CCCc1cc(C)[nH]c(=O)c1CNC(=O)c1cc(-c2cnc(N)nc2)cc2c1cnn2C(C)C [Example 20, 6-(2-amino-5-pyrimidinyl)-1-(1-methylethyl)-N-[(6-methyl-2-oxo-4-propyl-1,2-dihydro-3-pyridinyl)methyl]-1H-indazole-4-carboxamide]	10 nM
CCCc1cc(C)[nH]c(=O)c1CNC(=O)c1cc(-c2ccc(N(C)C)nc2)cc2c1cnn2C(C)C [Example 18, 6-[6-(dimethylamino)-3-pyridinyl]-1-(1-methylethyl)-N-[(6-methyl-2-oxo-4-propyl-1,2-dihydro-3-pyridinyl)methyl]-1H-indazole-4-carboxamide]	10 nM
CCCc1cc(C)[nH]c(=O)c1CNC(=O)c1cc(-c2ccc(OC)nc2)cc2c1cnn2C(C)C [Example 23, 1-(1-methylethyl)-N-[(6-methyl-2-oxo-4-propyl-1,2-dihydro-3-pyridinyl)methyl]-6-[6-(methyloxy)-3-pyridinyl]-1H-indazole-4-carboxamide]	8 nM
1-isopropyl-N-((6-methyl-2-oxo-4-propyl-1,2-dihydropyridin-3-yl)methyl)-6-(thiophen-3-yl)-1H-indazole-4-carboxamide [Example 32]	25 nM

More lines, now with the values ahead:

IC50	Compound
5 nM	CCCc1cc(C)[nH]c(=O)c1CNC(=O)c1cc(-c2ccc(N)nc2)cc2c1cnn2C(C)C [Example 21, 6-(6-amino-3-pyridinyl)-1-(1-methylethyl)-N-[(6-methyl-2-oxo-4-propyl-1,2-dihydro-3-pyridinyl)methyl]-1H-indazole-4-carboxamide]
8 nM	Cc1cc(Cc2ccccc2)c(CNC(=O)c2cc(Br)cc3c2cnn3C(C)C)c(=O)[nH]1 [Example 5, 6-bromo-1-(1-methylethyl)-N-{[6-methyl-2-oxo-4-(phenylmethyl)-1,2-dihydro-3-pyridinyl]methyl}-1H-indazole-4-carboxamide]
5 nM	CCCc1cc(C)[nH]c(=O)c1CNC(=O)c1cc(-c2ccc(N3CCN(C)CC3)nc2)cc2c1cnn2C(C)C [Example 24, 1-(1-methylethyl)-N-[(6-methyl-2-oxo-4-propyl-1,2-dihydro-3-pyridinyl)methyl]-6-[6-(4-methyl-1-piperazinyl)-3-pyridinyl]-1H-indazole-4-carboxamide]
6 nM	CCCc1cc(C)[nH]c(=O)c1CNC(=O)c1cc(-c2ccc(N3CCOCC3)nc2)cc2c1cnn2C(C)C [Example 19, 1-(1-methylethyl)-N-[(6-methyl-2-oxo-4-propyl-1,2-dihydro-3-pyridinyl)methyl]-6-[6-(4-morpholinyl)-3-pyridinyl]-1H-indazole-4-carboxamide]
4 nM	Cc1cc(C(C)C)c(CNC(=O)c2cc(-c3ccc(N4CCNCC4)nc3)cc3c2cnn3C(C)C)c(=O)[nH]1 [Example 12, 1-isopropyl-N-((4-isopropyl-6-methyl-2-oxo-1,2-dihydropyridin-3-yl)methyl)-6-(6-(piperazin-1-yl)pyridin-3-yl)-1H-indazole-4-carboxamide]
5 nM	CCc1cc(C)[nH]c(=O)c1CNC(=O)c1cc(-c2ccc(CN(C)C)cc2)cc2c1cnn2C(C)C [Example 14, 6-(4-((dimethylamino)methyl)phenyl)-N-((4-ethyl-6-methyl-2-oxo-1,2-dihydropyridin-3-yl)methyl)-1-isopropyl-1H-indazole-4-carboxamide]
2 nM	CCCc1cc(C)[nH]c(=O)c1CNC(=O)c1cc(-c2ccc(N3CCNCC3)nc2)cc2c1cnn2C(C)C [Example 15, 1-(1-methylethyl)-N-[(6-methyl-2-oxo-4-propyl-1,2-dihydro-3-pyridinyl)methyl]-6-[6-(1-piperazinyl)-3-pyridinyl]-1H-indazole-4-carboxamide]
3 nM	CCc1cc(C)[nH]c(=O)c1CNC(=O)c1cc(-c2ccc(N3CCN(C)CC3)nc2)cc2c1cnn2C(C)C [Example 16, N-((4-ethyl-6-methyl-2-oxo-1,2-dihydropyridin-3-yl)methyl)-1-isopropyl-6-(6-(4-methylpiperazin-1-yl)pyridin-3-yl)-1H-indazole-4-carboxamide]

From US8846935B2, “Indazoles” (GlaxoSmithKline LLC, priority 2010, dated 2014)
